Data taken from patent US20100137313A1 (ASTRAZENECA AB, priority 2008, published 2010).

Target: S. pneumoniae Topoisomerase IV ATPase (ParE) (Streptococcus pneumoniae serotype 4, UniProt Q59961)
Assay: S. pneumoniae Topoisomerase IV ATPase inhibition
Type: biochemical
Settings: values marked * are an average of two or more data points, read-out: % Inh (13 μM) of S. pneumoniae Topoisomerase IV ATPase
Procedure: S. pneumoniae Topoisomerase IV ATPase Inhibition Activity: Compounds may be tested for inhibition of S. pneumoniae ParE ATPase activity using an ammonium molybdate/malachite green-based phosphate detection assay (Lanzetta, P. A., L. J. Alvarez, P. S. Reinach, and O. A. Candia, 1979, 100: 95-97). Assays are performed in multiwell plates in 30 μl reactions containing: 20 mM Tris buffer pH 8.0, 50 mM ammonium acetate, 8.0 mM magnesium chloride, 0.5 mM ethylenediaminetetraacetic acid, 5% glycerol, 5 mM 1,4-Dithio-DL-threitol, 0.005% Brij-35, 5 μg/ml sheared salmon sperm DNA, 1.25 nM S. pneumoniae ParE, 160 μM ATP, and test compound in dimethylsulfoxide. Reactions are quenched with 30 μl of ammonium molybdate/malachite green detection reagent containing 1.2 mM malachite green hydrochloride, 8.5 mM ammonium molybdate tetrahydrate, and 1 M hydrochloric acid. Plates are read in an absorbance plate reader at 650 nm and percent inhibition values are calculated using dimethylsulfoxide (2%)-containing reactions as 0% inhibition and EDTA-containing ([…]) reactions as 100% inhibition controls. An IC50 measurement of compound potency for each compound can be determined from reactions performed in the presence of 10 different compound concentrations.
Many of the compounds of the invention were tested in an assay substantially similar to the assays described above for measuring the inhibition of E.coli GyrB ATPase, E. coli Topoisomerase IV ATPase, S. aureus GyrB ATPase, and S. pneumoniae Topoisomerase IV ATPase, and had IC50 values of <200 μM in one or more assays.

S. pneumoniae Topoisomerase IV ATPase (ParE), sequence (Q59961 whole entry): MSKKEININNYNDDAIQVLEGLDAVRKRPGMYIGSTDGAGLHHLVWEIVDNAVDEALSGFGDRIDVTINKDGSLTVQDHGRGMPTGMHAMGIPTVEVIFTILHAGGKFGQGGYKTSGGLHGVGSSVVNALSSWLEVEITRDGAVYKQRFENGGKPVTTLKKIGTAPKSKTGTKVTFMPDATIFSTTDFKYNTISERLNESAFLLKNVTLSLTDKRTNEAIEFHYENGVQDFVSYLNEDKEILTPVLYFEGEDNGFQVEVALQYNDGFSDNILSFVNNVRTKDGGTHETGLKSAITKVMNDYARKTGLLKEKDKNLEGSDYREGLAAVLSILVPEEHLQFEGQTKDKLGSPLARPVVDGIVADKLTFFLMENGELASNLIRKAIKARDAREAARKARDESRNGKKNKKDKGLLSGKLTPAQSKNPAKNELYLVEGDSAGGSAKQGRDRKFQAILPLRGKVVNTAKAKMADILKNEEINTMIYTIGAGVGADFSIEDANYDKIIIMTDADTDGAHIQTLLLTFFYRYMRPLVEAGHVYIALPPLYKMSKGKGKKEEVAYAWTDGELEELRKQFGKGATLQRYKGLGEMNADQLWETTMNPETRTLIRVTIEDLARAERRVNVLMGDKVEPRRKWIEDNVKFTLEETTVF

Row | Compound | inhibition at 13 µM
1 | O=C(O)[C@@H]1C[C@H]1c1cccc(-c2cnc(Nc3ccc(F)c(Cl)c3)nc2-n2ccc(C(F)(F)F)n2)c1 (racemic) [Example 574, (1,2-trans)-2-(3-(2-(3-chloro-4-fluorophenylamino)-4-(3-(trifluoromethyl)-1H-pyrazol-1-yl)pyrimidin-5-yl)phenyl)cyclopropanecarboxylic acid] | 96%
2 | CS(=O)(=O)NCCCNc1nc(Nc2ccc(F)c(Cl)c2)ncc1-c1cncnc1 [Ex 378, N-(3-(2-(3-chloro-4-fluorophenylamino)-5,5′-bipyrimidin-4-ylamino)propyl) methanesulfonamide] | 75.2%
3 | O=C(O)c1cncc(-c2cnc(Nc3cccc(Cl)c3)nc2-n2ccc(C(F)(F)F)n2)c1 [Ex 745, 5-{2-[(3-chlorophenyl)amino]-4-[3-(trifluoromethyl)-1H-pyrazol-1-yl]pyrimidin-5-yl}pyridine-3-carboxylic acid] | 100%
4 | COc1ncc(-c2cnc(Nc3ccc(F)c(Cl)c3)nc2NCCCN(C)C)cn1 [Example 1, N^2-(3-chloro-4-fluorophenyl)-N^4-(3-(dimethylamino)propyl)-2′-methoxy-5,5′-bipyrimidine-2,4-diamine] | 5.14%
5 | COC(=O)c1cccc(-c2cnc(Nc3ccc(F)c(Cl)c3)nc2NCCCN(C)C)c1 [Example 2, methyl 3-(2-(3-chloro-4-fluorophenylamino)-4-(3-(dimethylamino)propylamino)pyrimidin-5-yl)benzoate] | 77.8%
6 | CN(C)CCCNc1nc(Nc2ccc(F)c(Cl)c2)ncc1-c1cccc(NS(C)(=O)=O)c1 [Example 3, N-(3-(2-(3-chloro-4-fluorophenylamino)-4-(3-(dimethylamino)propylamino)pyrimidin-5-yl)phenyl)methanesulfonamide] | 56.8%
7 | CN(C)CCCNc1nc(Nc2ccc(F)c(Cl)c2)ncc1-c1ccc2cc[nH]c2c1 [Example 4, N^2-(3-chloro-4-fluorophenyl)-N^4-(3-(dimethylamino)propyl)-5-(1H-indol-6-yl)pyrimidine-2,4-diamine] | 93.1%
8 | CCOC(=O)c1cncc(-c2cnc(Nc3ccc(F)c(Cl)c3)nc2NCCCN(C)C)c1 [Example 5, ethyl 5-(2-(3-chloro-4-fluorophenylamino)-4-(3-(dimethylamino)propylamino)pyrimidin-5-yl) nicotinate] | 104%
9 | CCOC(=O)c1ccc(-c2cnc(Nc3ccc(F)c(Cl)c3)nc2NCCCN(C)C)cc1 [Example 6, Ethyl 4-(2-(3-chloro-4-fluorophenylamino)-4-(3-(dimethylamino)propylamino)pyrimidin-5-yl)benzoate] | 102%
10 | COc1ccc(-c2cnc(Nc3ccc(F)c(Cl)c3)nc2NCCCN(C)C)cc1C(F)(F)F [Example 7, N^2-(3-chloro-4-fluorophenyl)-N^4-(3-(dimethylamino)propyl)-5-(4-methoxy-3(trifluoromethyl)phenyl)pyrimidine-2,4-diamine] | 98.7%
11 | COc1cc(-c2cnc(Nc3ccc(F)c(Cl)c3)nc2NCCCN(C)C)cc(OC)n1 [Example 8, N^2-(3-chloro-4-fluorophenyl)-5-(2,6-dimethoxypyridin-4-yl)-N^4-(3-(dimethylamino)propyl)-pyrimidin-2,4-diamine] | 87.6%
12 | CN(C)CCCNc1nc(Nc2ccc(F)c(Cl)c2)ncc1-c1cc2ccccc2o1 [Example 9, 5-(benzofuran-2-yl)-N^2-(3-chloro-4-fluorophenyl)-N^4-(3-(dimethylamino)propyl)pyrimidine-2,4-diamine] | 60%
13 | COc1cc(-c2cnc(Nc3ccc(F)c(Cl)c3)nc2NCCCN(C)C)cc(OC)c1OC [Example 10, N^2-(3-chloro-4-fluorophenyl)-N^4-(3-(dimethylamino)propyl)-5-(3,4,5-trimethoxyphenyl)pyrimidin-2,4-diamine] | 99.3%
14 | CN(C)CCCNc1nc(Nc2ccc(F)c(Cl)c2)ncc1-c1cccc(NS(=O)(=O)N(C)C)c1 [Example 11, N′-[3-(2-[(3-chloro-4-fluorophenyl)amino]-4-{[3-(dimethylamino)propyl]amino}pyrimidin-5-yl)phenyl]-N,N-dimethylsulfonamide] | 18.2%
15 | CC(=O)c1ccc(-c2cnc(Nc3ccc(F)c(Cl)c3)nc2NCCCN(C)C)s1 [Example 12, 1-{5-[2-(3-chloro-4-fluorophenylamino)-4-[3-(dimethylamino)propylamino)pyrimidin-5-yl]thiophen-2-yl}ethanone] | 108%
16 | CN(C)CCCNc1nc(Nc2ccc(F)c(Cl)c2)ncc1-c1ccc(F)c(C#N)c1 [Example 13, 5-{2-(3-chloro-4-fluorophenylamino)-4-[3-(dimethylamino)propylamino]pyrimidin-5-yl}-2-fluorobenzonitrile] | 102%
17 | CN(C)CCCNc1nc(Nc2ccc(F)c(Cl)c2)ncc1-c1cccc([N+](=O)[O-])c1 [Example 14, N^2-(3-chloro-4-fluorophenyl)-N^4-[3-(dimethylamino)propyl]-5-(3-nitrophenyl) pyrimidin-2,4-diamine] | 100%
18 | CN(C)CCCNc1nc(Nc2ccc(F)c(Cl)c2)ncc1-c1cncc(C#N)c1 [Example 15, 5-{2-(3-chloro-4-fluorophenylamino)-4-[3-(dimethylamino)propylamino]pyrimidin-5-yl}nicotinitrile] | 100%
19 | CN(C)CCCNc1nc(Nc2ccc(F)c(Cl)c2)ncc1-c1cn([Si](C)(C)C(C)(C)C)c2ccccc12 [Example 16, 5-[1-(tert-butyldimethylsilyl)-1H-indol-3-yl]-N^2-(3-chloro-4-fluorophenyl)-N^4-[3-(dimethylamino)propyl] pyrimidin-2,4-diamine] | 55.3%
20 | CN(C)CCCNc1nc(Nc2ccc(F)c(Cl)c2)ncc1-c1ccc(C(=O)O)s1 [Example 17, 5-{2-(3-chloro-4-fluorophenylamino)-4-[3-(dimethylamino)propylamino]pyrimidin-5-yl}thiophene-2-carboxylic acid] | 54.8%
21 | COc1ccc(-c2cnc(Nc3ccc(F)c(Cl)c3)nc2NCCCN(C)C)cn1 [Example 18, N^2-(3-chloro-4-fluorophenyl)-N^4-[3-(dimethylamino)propyl]-5-(6-methoxy-pyridin-3-yl)pyrimidin-2,4-diamine] | 96.6%
22 | CN(C)CCCNc1nc(Nc2ccc(F)c(Cl)c2)ncc1-c1cnc(N)nc1 [Example 19, N^2-(3-chloro-4-fluorophenyl)-N^4-[3-(dimethylamino)propyl]-5,5′-bipyrimidin-2,2′,4-triamine] | 95.8%
23 | CN(C)CCCNc1nc(Nc2ccc(F)c(Cl)c2)ncc1-c1cn[nH]c1 [Example 20, N^2-(3-chloro-4-fluorophenyl)-N^4-[3-(dimethylamino)propyl]-5-(1H-pyrazol-4-yl)pyrimidine-2,4-diamine] | 74.6%
24 | CN(C)CCCNc1nc(Nc2ccc(F)c(Cl)c2)ncc1-c1ccc(N)nc1 [Example 21, 5-(6-aminopyridin-3-yl)-N^2-(3-chloro-4-fluorophenyl)-N^4-[3-(dimethylamino)propyl]pyrimidine-2,4-diamine] | 71.7%
25 | COC(=O)c1cc2cc(-c3cnc(Nc4ccc(F)c(Cl)c4)nc3NCCCN(C)C)ccc2s1 [Example 22, Methyl 5-{2-(3-chloro-4-fluorophenylamino)-4-[3-(dimethylamino)propylamino]pyrimidin-5-yl}benzo[b]thiophene-2-carboxylate] | 85.3%
